In US20160279043A1, “COMBINATIONS OF N-ACETYL CYSTEINE DERIVATIVES AND CRANBERRY POLYPHENOLS IN COMPOSITIONS AND METHODS FOR PREVENTING AND TREATING PERIODONTAL DISEASES AND PERI-IMPLATITIS” (DENTALMED PHARM HOLDING LTD., priority 2013, published 2016):
“Also recorded” adds a separate entry of the source.

Experiments:
[1] = test system: Aggregibcater actynomycetemcomitans; test: Pre-formed biofilm challenge, MBEC P&G assay, LOG10 reduction; assay type: cell-based, Aggregibcater actynomycetemcomitans (ATCC 43717)
Description: (§1) Sterile MBEC™ P&G plates coated with Hydroxyapatite were used for biofilm growth. The plates consist of plastic lids with 96 protruding polystyrene pegs that have each been coated with hydroxyapatite and a corresponding 96 well base into which the inoculum is placed. The bacterial inoculum for each plate is 150 μL in each well (Innovotech Inc., Edmonton, Alberta, Canada).
(§2) Using a cryogenic stock (at −70° C.), a first sub-culture of the bacterial organisms listed above was streaked out on an organism specific agar (OSA). The bacterium was incubated at appropriate growth conditions for 24-48 hours and the plate was stored wrapped in parafilm at 4° C. for the aerobic strain (Aggregibcater actynomycetemcomitans) and 21° C. in the anaerobic chamber for anaerobic strain (Porphyromonas gingivalis). From the first sub-culture, a second sub-culture was streaked out on OSA. It was incubated at appropriate growth conditions for 24-48 hours. The second sub-culture was used within 24 hours starting from the time it was first removed from incubation. Using the second sub-culture, an isolated colony was aseptically removed from the OSA plate and inoculated into 100 mL of sterile bacterial liquid growth broth. The latter was incubated at 150 rpm at appropriate growth conditions for 24-24 hour. This yielded a viable bacterial density of approximately 10^9 CFU/mL and was checked by serial dilution and plating. The inoculum was adjusted to an approximate cell density of 10^6 CFU/mL by diluting in organism specific broth (OSB). The diluted organism was vortexed for approximately 10 seconds to achieve uniform mixing of the organism. One sample (100 μL) of the diluted organism was used for an inoculum check by serially diluting and spot plating on OSA in triplicate. It should be noted that for the anaerobic microorganism, growth, sonication, serial dilution, transfer and recovery of the organism was performed under anaerobic conditions (5% H2, 10% CO2, 85% N2).
(§3) Each bacterial over-night culture was diluted 1,000× in its specific OSM. Using a micro pipette, 150 μL of inoculum was added to the appropriate wells of a 96 well plate, except for wells that served as sterility controls (SC). Sterility control wells received sterile OSB. The HA MBEC™ P&G lid was then inserted into the 96-well bottom. It should be noted that the volume of inoculum used in this step has been calibrated such that the biofilm covers a surface area that is immersed, entirely, by the volume of antimicrobials used in the challenge plate set up. The device was placed on the gyrorotary shaker in a humidified incubator and incubated at 110 rpm at the appropriate growth conditions. Porphyromonas gingivalis was incubated for 24 hours, and Aggregibcater actynomycetemcomitans was incubated for 48 hours. A triplicate sample of the inoculum was serially diluted (ten-fold). The latter served as controls used to verify the starting cell number in the inoculum. The serial 10-fold dilutions of the inoculum from 10^−7 to 10^0 were spot plated on an appropriately labeled series of agar plates. The spot plates were incubated for an appropriate period of time and scored for growth.
(§4) The biofilm growth check (GCh) pegs were broken off from the challenge plate with flamed pliers. Each peg was placed into 200 μL of neutralizer in row A of serial dilution plate. The plates were sonicated for 30 minutes. Then serial dilution and spot plating on OSA was performed, which served as a biofilm growth check.
(§5) Biofilms were tested using the specified contact times. Callenge plates were used for testing the killing activity of the tested biocidic compounds on formed biofilm and other plates to test the inhibitory effect of biofilm formation. SC wells served as sterility controls for each experiment. One challenge plate was used per growth condition and challenge time. GC is the growth control. GCh is the biofilm Growth Check. […]

Porphyromonas gingivalis [2] = test: as above; assay type: cell-based, Porphyromonas gingivalis (ATCC 33277)
Description: as §1, §2, §3, §4, §5

[3] = test system: Aggregibcater actynomycetemcomitans; test: Growth inhibition, LOG10 reduction; assay type: cell-based, Aggregibcater actynomycetemcomitans (ATCC 43717)
Description: as §2
(§6) Biofilms were tested using the specified contact times. Callenge plates were used for testing the killing activity of the tested biocidic compounds on formed biofilm and other plates to test the inhibitory effect of biofilm formation. SC wells served as sterility controls for each experiment. One challenge plate was used per growth condition and challenge time. GC is the growth control. GCh is the biofilm Growth Check.
(§7) Using a sterile 96-well microtitre plate the following was done aseptically to set up the above challenge plates. 200 μL of sterile OSM was added to wells that served as the device sterility control for the media and for biofilm growth checks. 200 μL of sterile neutralizer was added to wells that served as the neutralizer toxicity control. 100 μL of the neutralizer and 100 μL of each of the tested compounds or combinations were added to wells serving as neutralizer affectivity control. 200 μL of biocide stock solution was added to wells which served as the biocide diluent sterility control. Serial dilutions of the tested compounds and combinations in the diluents (OSM) were performed. Each freshly prepared challenge plate was aseptically covered and left to stand at room temperature for 30 minutes to equilibrate prior to use.
(§8) Following sonication of all plates, 100 μL was placed from each well of the MBEC™ plate into the first 12 empty wells of the first row of a 96 well-micro titer plate. 180 μL of sterile 0.9% saline were placed in the remaining rows. A Serial dilution (10^0-10^−7) was performed by moving 20 μL down each of the 8 rows. 10 μL were removed from each well and spot plated on prepared OSA plates. Plates were incubated at 37±1° C. and counted after approximately 24-48 hours of incubation. The data obtained was evaluated as Log 10 CFU/peg. 100 μL of the sterile neutralizer were placed in each well of the recovery plate to top up the volume back to 200 μL.
(§9) LOG10 Reduction=Mean LOG10 Growth Control−Mean LOG10 Test.

Porphyromonas gingivalis [4] = test: Growth inhibition, LOG10 reduction; assay type: cell-based, Porphyromonas gingivalis (ATCC 33277)
Description: as §2, §6, §7, §8, §9

[5] = test system: Aggregibcater actynomycetemcomitans; test: Planktonic MIC; assay type: cell-based, Aggregibcater actynomycetemcomitans (ATCC 43717); settings: Compound A alone; 24 hours
Description: (§10) The MIC (minimum inhibitory concentration) for the compound was determined for each organism shed from the biofilm during the challenge incubation. The MIC was defined as the minimum concentration that inhibits growth of the organism.

Porphyromonas gingivalis [6] = test: Planktonic MIC; assay type: cell-based, Porphyromonas gingivalis (ATCC 33277); settings: Compound A alone; 24 hours
Description: as §10

[7] = test system: Aggregibcater actynomycetemcomitans; test: Planktonic minimum bactericidal concentration (MBC); assay type: cell-based, Aggregibcater actynomycetemcomitans (ATCC 43717); settings: Compound A alone; 24 hours contact
Description: (§11) After the specified contact time (24 hours), 20 μL from each well of the challenge plate were removed and placed into the corresponding wells of a fresh 96 well Nunc plate containing 180 μL OSM. The plate was incubated at 37° C. for 24 hours.

Porphyromonas gingivalis [8] = test: as above; assay type: cell-based, Porphyromonas gingivalis (ATCC 33277); settings: Compound A alone; 24 hours contact
Description: as §11

[9] = test system: Aggregibcater actynomycetemcomitans; test: Biofilm MBEC; assay type: cell-based, Aggregibcater actynomycetemcomitans (ATCC 43717); settings: Compound A alone
Description: (§12) MBEC is defined as the minimum concentration of test compound that inhibits growth of the biofilm. The recovery plate prepared according to the description above was incubated at 37° C. for 24 hours and read visually to determine MBEC values. A microtiter plate reader was used to obtain optical density measurements at 630 nm (OD630). Clear wells (OD630<0.1) ware evidence of biofilm eradication.

Porphyromonas gingivalis [10] = test: Biofilm MBEC; assay type: cell-based, Porphyromonas gingivalis (ATCC 33277); settings: Compound A alone
Description: as §12

[11] = Compound A, all tested concentrations

MIC Cut-off, A.a. [5]: 10% | MIC Cut-off, P. gingivalis (Porphyromonas gingivalis [6]): >20%
SMILES: CC(=O)N[C@@H](CS)C(=O)O [Compound A, N-acetyl cysteine]
Log Reduction, Biofilm, A.a. ([1]; Compound A 0.15%): 0.51 log | Log Reduction, Biofilm, A.a. ([1]; Compound A 0.31%): −0.02 log | Log Reduction, Biofilm, A.a. ([1]; Compound A 0.62%): 0.23 log | Log Reduction, Biofilm, A.a. ([1]; Compound A 1.25%): 0.36 log | Log Reduction, Biofilm, A.a. ([1]; Compound A 2.50%): −0.01 log | Log Reduction, Biofilm, A.a. ([1]; Compound A 5%): 0.39 log | Log Reduction, Biofilm, A.a. ([1]; Compound A 10%): 3.02 log | Log Reduction, Biofilm, A.a. ([1]; Compound A 20%): 3.25 log | Log Reduction, Biofilm, P. gingivalis (Porphyromonas gingivalis [2]; Compound A 0.15%): 0.11 log | Log Reduction, Biofilm, P. gingivalis (Porphyromonas gingivalis [2]; Compound A 0.31%): 0.07 log | Log Reduction, Biofilm, P. gingivalis (Porphyromonas gingivalis [2]; Compound A 0.62%): −0.07 log | Log Reduction, Biofilm, P. gingivalis (Porphyromonas gingivalis [2]; Compound A 1.25%): −0.18 log | Log Reduction, Biofilm, P. gingivalis (Porphyromonas gingivalis [2]; Compound A 2.50%): 0.13 log | Log Reduction, Biofilm, P. gingivalis (Porphyromonas gingivalis [2]; Compound A 5%): −0.18 log | Log Reduction, Biofilm, P. gingivalis (Porphyromonas gingivalis [2]; Compound A 10%): −0.17 log | Log Reduction, Biofilm, P. gingivalis (Porphyromonas gingivalis [2]; Compound A 20%): 0.13 log | Reducing preformed biofilm of P. gingivalis (in words) (Porphyromonas gingivalis [2]; [11]): ineffective; also recorded: No inhibition or biofilm reduction | Log Reduction, Growth Inhibition, A.a. ([3]; Compound A 0.15%): 0.24 log | Log Reduction, Growth Inhibition, A.a. ([3]; Compound A 0.31%): 0.28 log | Log Reduction, Growth Inhibition, A.a. ([3]; Compound A 0.62%): 0.74 log | Log Reduction, Growth Inhibition, A.a. ([3]; Compound A 1.25%): 1.04 log | Log Reduction, Growth Inhibition, A.a. ([3]; Compound A 2.50%): 1.13 log | Log Reduction, Growth Inhibition, A.a. ([3]; Compound A 5%): 2.05 log | Log Reduction, Growth Inhibition, A.a. ([3]; Compound A 10%): 6.34 log | Log Reduction, Growth Inhibition, A.a. ([3]; Compound A 20%): 6.34 log | Inhibiting growth of A.a. (in words) ([3]; Compound A, only at 20% and 10% of the stock concentration): effective at inhibiting growth | Log Reduction, Growth Inhibition, P. gingivalis (Porphyromonas gingivalis [4]; Compound A 0.15%): −0.89 log | Log Reduction, Growth Inhibition, P. gingivalis (Porphyromonas gingivalis [4]; Compound A 0.31%): −0.05 log | Log Reduction, Growth Inhibition, P. gingivalis (Porphyromonas gingivalis [4]; Compound A 0.62%): 0.35 log | Log Reduction, Growth Inhibition, P. gingivalis (Porphyromonas gingivalis [4]; Compound A 1.25%): 0.44 log | Log Reduction, Growth Inhibition, P. gingivalis (Porphyromonas gingivalis [4]; Compound A 2.50%): 0.11 log | Log Reduction, Growth Inhibition, P. gingivalis (Porphyromonas gingivalis [4]; Compound A 5%): −0.19 log | Log Reduction, Growth Inhibition, P. gingivalis (Porphyromonas gingivalis [4]; Compound A 10%): −0.71 log | Log Reduction, Growth Inhibition, P. gingivalis (Porphyromonas gingivalis [4]; Compound A 20%): 0.36 log | Inhibiting growth of P. gingivalis (in words) (Porphyromonas gingivalis [4]; [11]): ineffective; also recorded: No inhibition | MBC Cut-off, A.a. [7]: >20% | MBC Cut-off, P. gingivalis (Porphyromonas gingivalis [8]): >20% | MBEC Cut-off, A.a. [9]: >20% | MBEC Cut-off, P. gingivalis (Porphyromonas gingivalis [10]): >20%
